Holding throughout (type): biochemical
Conditions in all cases: ADP-Glo SIK kinase assay

The target in one experiment is T1, SIK3 (Homo sapiens, UniProt Q9Y2K2).
T1 construct: purchased SignalChem S12-11G-100
As to the kind of experiment: ADP-Glo kinase assay, SIK3. As to the method: (§1) The ADP-Glo™ kinase assay is a luminescent technology assay which measures the ADP formed from a kinase reaction. […] In a second step the kinase reactions are terminated and all the remaining ATP is depleted. In a final step the ADP is converted into ATP and this newly synthesized ATP is measured by using a luciferase/luciferin reaction. The generated light is measured using an Envision plate reader, wherein the luminescent signal obtained positively correlates with the kinase activity.
(§2) 1% DMSO and 10 μM staurosporine final concentrations are used as negative and positive controls.
(§3) 2 μL enzyme-substrate mixture is added to the assay plates.
(§4) The reaction is started by adding 2 μL diluted ATP on the assay plates. Plates are centrifuged for a few seconds at 1000 rpm and gently shaken for 2 min followed by an incubation at RT for 120 min.
(§5) The reactions are stopped and the unconsumed ATP is depleted by adding 5 μL ADP-Glo Reagent (Promega, Cat #V912B) to the reaction. The plates are centrifuged for a few seconds at 1000 rpm and incubated at RT for 40 min (ATP depletion).
(§6) The ADP is converted to ATP and luciferase and luciferin is introduced to detect ATP by adding 10 μL Kinase Detection Reagent (Promega, Cat #V913B+V914B) to the reaction. The plates are centrifuged for a few seconds at 1000 rpm and incubated at RT for 30 min (ADP detection).
(§7) Luminescence is measured on an Envision plate reader (PerkinElmer Inc.).

The next experiment has as its target T2, SIK1 (Homo sapiens, UniProt P57059).
T2 construct: purchased Carna Biosciences 02-131
Description: ADP-Glo kinase assay, SIK1. On the procedure:
as §1, §2, §3, §4, §5, §6, §7

The target of a further experiment is T3, SIK2 (Homo sapiens, UniProt Q9H0K1).
T3 construct: purchased ThermoFisher Scientific PV4792
T3 sequence (Q9H0K1 whole entry): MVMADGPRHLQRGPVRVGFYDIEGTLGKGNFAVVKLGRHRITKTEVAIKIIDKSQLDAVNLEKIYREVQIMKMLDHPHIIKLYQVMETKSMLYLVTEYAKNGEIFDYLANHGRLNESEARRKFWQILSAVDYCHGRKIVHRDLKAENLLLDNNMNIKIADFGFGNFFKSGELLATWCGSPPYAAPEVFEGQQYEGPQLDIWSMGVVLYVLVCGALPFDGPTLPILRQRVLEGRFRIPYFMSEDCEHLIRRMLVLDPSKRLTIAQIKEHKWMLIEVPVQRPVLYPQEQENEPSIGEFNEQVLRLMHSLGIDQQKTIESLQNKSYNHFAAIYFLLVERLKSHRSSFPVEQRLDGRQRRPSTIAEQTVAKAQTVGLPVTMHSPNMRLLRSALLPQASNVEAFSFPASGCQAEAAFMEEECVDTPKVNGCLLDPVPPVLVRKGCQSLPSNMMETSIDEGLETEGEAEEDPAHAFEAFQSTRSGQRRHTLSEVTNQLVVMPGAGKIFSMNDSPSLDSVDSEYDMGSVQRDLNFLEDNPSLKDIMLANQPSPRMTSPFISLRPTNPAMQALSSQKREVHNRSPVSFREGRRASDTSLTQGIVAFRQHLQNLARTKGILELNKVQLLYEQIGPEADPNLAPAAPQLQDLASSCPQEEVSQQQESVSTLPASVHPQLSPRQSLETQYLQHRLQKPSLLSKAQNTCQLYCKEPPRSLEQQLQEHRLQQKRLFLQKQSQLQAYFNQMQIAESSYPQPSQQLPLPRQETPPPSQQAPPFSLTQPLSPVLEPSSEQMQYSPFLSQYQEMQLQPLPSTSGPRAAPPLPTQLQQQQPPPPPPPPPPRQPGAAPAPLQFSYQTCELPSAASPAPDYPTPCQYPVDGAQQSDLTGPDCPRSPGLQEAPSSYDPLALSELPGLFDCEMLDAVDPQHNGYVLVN
As to the kind of experiment: ADP-Glo kinase assay, SIK2. On the procedure: as §1, §2, §3, §4, §5, §6, §7

T1 sequence (Q9Y2K2 whole entry): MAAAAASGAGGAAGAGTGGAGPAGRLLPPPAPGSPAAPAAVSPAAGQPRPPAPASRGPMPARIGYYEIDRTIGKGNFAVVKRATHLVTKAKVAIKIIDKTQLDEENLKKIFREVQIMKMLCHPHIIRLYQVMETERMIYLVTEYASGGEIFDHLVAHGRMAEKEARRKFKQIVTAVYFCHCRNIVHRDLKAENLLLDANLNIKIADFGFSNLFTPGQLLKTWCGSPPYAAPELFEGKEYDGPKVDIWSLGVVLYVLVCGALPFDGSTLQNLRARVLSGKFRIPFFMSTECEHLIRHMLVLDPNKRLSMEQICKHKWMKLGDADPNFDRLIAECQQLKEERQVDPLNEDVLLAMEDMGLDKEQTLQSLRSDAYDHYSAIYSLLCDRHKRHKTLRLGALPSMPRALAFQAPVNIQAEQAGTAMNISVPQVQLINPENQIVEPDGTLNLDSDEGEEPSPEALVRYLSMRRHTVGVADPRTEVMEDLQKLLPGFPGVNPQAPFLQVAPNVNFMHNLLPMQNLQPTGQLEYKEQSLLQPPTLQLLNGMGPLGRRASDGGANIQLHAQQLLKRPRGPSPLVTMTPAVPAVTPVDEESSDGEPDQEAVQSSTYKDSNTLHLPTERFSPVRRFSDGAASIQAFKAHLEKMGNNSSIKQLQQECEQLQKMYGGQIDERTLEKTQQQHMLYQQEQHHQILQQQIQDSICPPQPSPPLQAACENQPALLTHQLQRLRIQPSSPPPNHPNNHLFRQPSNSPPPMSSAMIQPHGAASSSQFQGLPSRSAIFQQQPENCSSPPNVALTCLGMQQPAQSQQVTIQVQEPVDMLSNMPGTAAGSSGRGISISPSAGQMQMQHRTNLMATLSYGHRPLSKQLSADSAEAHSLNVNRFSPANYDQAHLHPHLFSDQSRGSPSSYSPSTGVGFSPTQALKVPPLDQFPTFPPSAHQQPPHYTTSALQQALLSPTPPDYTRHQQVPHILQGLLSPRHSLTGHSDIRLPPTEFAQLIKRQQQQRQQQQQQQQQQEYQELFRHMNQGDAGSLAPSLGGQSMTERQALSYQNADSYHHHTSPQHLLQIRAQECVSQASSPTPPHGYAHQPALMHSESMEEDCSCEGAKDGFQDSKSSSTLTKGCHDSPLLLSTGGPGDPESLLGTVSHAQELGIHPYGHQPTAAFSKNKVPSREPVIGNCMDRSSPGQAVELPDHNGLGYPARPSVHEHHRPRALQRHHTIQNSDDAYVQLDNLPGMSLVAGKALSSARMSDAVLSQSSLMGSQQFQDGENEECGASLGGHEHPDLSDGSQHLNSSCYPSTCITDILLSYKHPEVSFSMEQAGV
T2 sequence (P57059 whole entry): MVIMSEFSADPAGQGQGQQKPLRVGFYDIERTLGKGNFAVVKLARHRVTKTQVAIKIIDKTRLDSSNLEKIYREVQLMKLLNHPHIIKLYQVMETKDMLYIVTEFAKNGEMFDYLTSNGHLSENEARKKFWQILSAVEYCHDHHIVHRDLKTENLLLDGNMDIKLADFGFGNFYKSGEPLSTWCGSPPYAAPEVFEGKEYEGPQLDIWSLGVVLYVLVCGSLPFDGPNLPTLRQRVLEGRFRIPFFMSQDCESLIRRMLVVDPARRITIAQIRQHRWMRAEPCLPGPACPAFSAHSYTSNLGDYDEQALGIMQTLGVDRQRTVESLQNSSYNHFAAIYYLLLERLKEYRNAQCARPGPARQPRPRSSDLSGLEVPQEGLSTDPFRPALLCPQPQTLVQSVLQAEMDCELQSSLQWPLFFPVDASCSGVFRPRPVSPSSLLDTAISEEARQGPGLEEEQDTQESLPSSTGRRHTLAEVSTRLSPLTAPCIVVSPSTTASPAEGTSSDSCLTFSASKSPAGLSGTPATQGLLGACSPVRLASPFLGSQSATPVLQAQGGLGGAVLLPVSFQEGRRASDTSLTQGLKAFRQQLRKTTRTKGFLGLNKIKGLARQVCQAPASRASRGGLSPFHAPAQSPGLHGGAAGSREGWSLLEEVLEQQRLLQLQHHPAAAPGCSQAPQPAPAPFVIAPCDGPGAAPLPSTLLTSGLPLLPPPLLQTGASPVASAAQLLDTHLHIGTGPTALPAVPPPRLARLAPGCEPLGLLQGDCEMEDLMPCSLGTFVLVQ

With `COc1cc(-c2cnc3cc(OCC(C)(C)C#N)ccn23)cc(OC(F)F)c1C(=O)NC1CC1` [compound 34, 4-[7-(2-cyano-2-methyl-propoxy)imidazo[1,2-a]pyridin-3-yl]-N-cyclopropyl-2-(difluoromethoxy)-6-methoxy-benzamide], the results for the IC50 against SIK3, on SIK1 and against SIK2 were 0.01 to 10 nM, 10 to 100 nM and 0.01 to 10 nM, respectively.

For `COC(=O)NCC(F)(F)COc1ccn2c(-c3cc(OC)c(C(=O)NC4CC4)c(OC(F)F)c3)cnc2c1` [Cpd 365, methyl N-[3-[3-[4-(cyclopropylcarbamoyl)-3-(difluoromethoxy)-5-methoxy-phenyl]imidazo[1,2-a]pyridin-7-yl]oxy-2,2-difluoro-propyl]carbamate], the IC50 on SIK3 fell in the range of 0.01 to 10 nM; on SIK1, 10 to 100 nM; on SIK2, 0.01 to 10 nM.

Turning to `COc1cc(-c2cnc3cc(OCCCN4CCc5c(ncn5C)C4)ccn23)cc(OC(F)F)c1C(=O)NC1CC1` [compound 309, N-cyclopropyl-2-(difluoromethoxy)-6-methoxy-4-[7-[3-(1-methyl-6,7-dihydro-4H-imidazo[4,5-c]pyridin-5-yl)propoxy]imidazo[1,2-a]pyridin-3-yl]benzamide], the values for the IC50 on SIK3, at SIK1 and against SIK2 were 0.01 to 10 nM, 10 to 100 nM and 0.01 to 10 nM, respectively.

With `O=C1c2ncc(-c3cnc4cc(OCCN5CCOCC5)ccn34)cc2CN1CC(F)(F)F` [Cpd 266, 3-[7-(2-morpholinoethoxy)imidazo [1,2-a]pyridin-3-yl]-6-(2,2,2-trifluoroethyl)-5H-pyrrolo[3,4-b]pyridin-7-one], the IC50 against SIK3, on SIK1 and on SIK2 was greater than 500 nM in each case.

For the compound `CCOc1ccn2c(-c3cc4c(c(OC)c3)C(=O)N(CC(F)(F)F)CC4)cnc2c1` [Cpd 264, 6-(7-ethoxyimidazo[1,2-a]pyridin-3-yl)-8-methoxy-2-(2,2,2-trifluoroethyl)-3,4-dihydroisoquinolin-1-one], the IC50 against SIK3 was 0.01 to 10 nM; on SIK1, 100 to 500 nM; against SIK2, 10 to 100 nM.

With `COc1cc(-c2cnc3cc(OCC4(CN)CCC4)ccn23)cc(OC(F)F)c1C(=O)NC1CC1` [compound 116, 4-[7-[[1-(aminomethyl)cyclobutyl]methoxy]imidazo[1,2-a]pyridin-3-yl]-N-cyclopropyl-2-(difluoromethoxy)-6-methoxy-benzamide], the IC50 fell in the range of 0.01 to 10 nM at SIK3, 10 to 100 nM at SIK1 and 0.01 to 10 nM at SIK2.

Consider `COc1cc(-c2cnc3cc(OC[C@H]4CCN(CCC#N)C4)ccn23)cc(OC(F)F)c1C(=O)NC1CC1` [compound 350, 4-[7-[[(3S)-1-(2-cyanoethyl)pyrrolidin-3-yl]methoxy]imidazo[1,2-a]pyridin-3-yl]-N-cyclopropyl-2-(difluoromethoxy)-6-methoxy-benzamide], for which the IC50 against SIK3 fell in the range of 0.01 to 10 nM; against SIK1, 10 to 100 nM; at SIK2 it was 0.01 to 10 nM.

As to `COc1cc(-c2cnc3cc(OCC(N)C(C)C)ccn23)cc(OC(F)F)c1C(=O)NC1CC1` (stereo not drawn) [compound 121, 4-[7-(2-amino-3-methyl-butoxy)imidazo[1,2-a]pyridin-3-yl]-N-cyclopropyl-2-(difluoromethoxy)-6-methoxy-benzamide], the IC50 lay in the range of 0.01 to 10 nM at SIK3, 10 to 100 nM on SIK1 and 0.01 to 10 nM against SIK2.

On to `COc1cc(-c2cnc3cc(OCc4ccccc4)ncn23)cc(OC(F)F)c1C(=O)NC1CC1` [Cpd 159, 4-(7-benzyloxyimidazo[1,2-c]pyrimidin-3-yl)-N-cyclopropyl-2-(difluoromethoxy)-6-methoxy-benzamide], for which the IC50 against SIK3 was in the range of 0.01 to 10 nM; at SIK1, 100 to 500 nM; against SIK2 it was 10 to 100 nM.

As for `COc1cc(-c2cnc3cc(OCc4cn(C)cn4)ccn23)cc(OC(F)F)c1C(=O)NC1CC1` [Cpd 101, N-cyclopropyl-2-(difluoromethoxy)-6-methoxy-4-[7-[(1-methylimidazol-4-yl)methoxy]imidazo[1,2-a]pyridin-3-yl]benzamide], the IC50 against SIK3 fell in the range of 0.01 to 10 nM; at SIK1 it was 10 to 100 nM; on SIK2, 0.01 to 10 nM.

Turning to `COc1cc(-c2cnc3cc(OCC4CCN4)ccn23)cc(OC(F)F)c1C(=O)NC1CC1` (stereo not drawn) [Cpd 109, 4-[7-(azetidin-2-ylmethoxy)imidazo[1,2-a]pyridin-3-yl]-N-cyclopropyl-2-(difluoromethoxy)-6-methoxy-benzamide], the IC50 on SIK3 was 0.01 to 10 nM; against SIK1, 10 to 100 nM; at SIK2, 0.01 to 10 nM.

`COc1cc(-c2cnc3cc(OCC4(C)CC4)ccn23)cc(OC(F)F)c1C(=O)NC1CC1` [compound 97, N-cyclopropyl-2-(difluoromethoxy)-6-methoxy-4-[7-[(1-methylcyclopropyl)methoxy]imidazo[1,2-a]pyridin-3-yl]benzamide]: the IC50 against SIK3 fell in the range of 0.01 to 10 nM; against SIK1 it was 10 to 100 nM; at SIK2, 0.01 to 10 nM.

Consider `COc1cc(-c2cnc3cc(OCC(=O)N(C)C)ccn23)cc(OC(F)F)c1C(=O)NC1CC1` [compound 100, N-cyclopropyl-2-(difluoromethoxy)-4-[7-[2-(dimethylamino)-2-oxo-ethoxy]imidazo[1,2-a]pyridin-3-yl]-6-methoxy-benzamide], for which the IC50 fell in the range of 10 to 100 nM against SIK3, 100 to 500 nM at SIK1 and 10 to 100 nM at SIK2.

For `COc1cc(-c2cnc3cc(OCC(=O)O)ccn23)cc(OC(F)F)c1C(=O)NC1CC1` [Cpd 396, 2-[3-[4-(cyclopropylcarbamoyl)-3-(difluoromethoxy)-5-methoxy-phenyl]imidazo[1,2-a]pyridin-7-yl]oxyacetic acid], the IC50 was 10 to 100 nM on SIK3, 100 to 500 nM on SIK1 and 100 to 500 nM at SIK2.

Consider `COc1cc(-c2cnc3cc(OCc4cnn(C)c4)ccn23)cc(OC(F)F)c1C(=O)NC1CC1` [compound 199, N-cyclopropyl-2-(difluoromethoxy)-6-methoxy-4-[7-[(1-methylpyrazol-4-yl)methoxy]imidazo[1,2-a]pyridin-3-yl]benzamide], for which the values for the IC50 at SIK3, at SIK1 and at SIK2 were 0.01 to 10 nM, 10 to 100 nM and 0.01 to 10 nM, respectively.

As to `COc1cc(-c2cnc3cc(OC[C@H]4CNCC[C@@H]4O)ccn23)cc(OC(F)F)c1C(=O)NC1CC1` (racemic) [Cpd 373, N-cyclopropyl-2-(difluoromethoxy)-4-[7-[[(3R,4S)-4-hydroxy-3-piperidyl]methoxy]imidazo [1,2-a]pyridin-3-yl]-6-methoxy-benzamide/ N-cyclopropyl-2-(difluoromethoxy)-4-[7-[[(3S,4R)-4-hydroxy-3-piperidyl]methoxy]imidazo [1,2-a]pyridin-3-yl]-6-methoxy-benzamide mixture], the IC50 against SIK3 lay in the range of 0.01 to 10 nM; against SIK1 it was 10 to 100 nM; against SIK2 it was 0.01 to 10 nM.

On to `COc1cc(-c2cnc3cc(OCC4CN(CCO)C4)ccn23)cc(OC(F)F)c1C(=O)NC1CC1` [Cpd 343, N-cyclopropyl-2-(difluoromethoxy)-4-[7-[[1-(2-hydroxyethyl)azetidin-3-yl]methoxy]imidazo[1,2-a]pyridin-3-yl]-6-methoxy-benzamide], for which the values for the 50% inhibitory concentration (IC50) at SIK3, at SIK1 and on SIK2 were 0.01 to 10 nM, 10 to 100 nM and 0.01 to 10 nM, respectively.

As to `CNCCOc1ccn2c(-c3cc4c(c(OC)c3)C(=O)N(CC(F)(F)F)CC4)cnc2c1` [compound 185, 8-methoxy-6-[7-[2-(methylamino)ethoxy]imidazo[1,2-a]pyridin-3-yl]-2-(2,2,2-trifluoroethyl)-3,4-dihydroisoquinolin-1-one], the figures for the IC50 against SIK3, against SIK1 and at SIK2 were 0.01 to 10 nM, 100 to 500 nM and 0.01 to 10 nM, respectively.

In the case of `CCN(CC)CCOCCOc1ccn2c(-c3cc(OC)c(C(=O)NC4CC4)c(OC(F)F)c3)cnc2c1` [compound 307, N-cyclopropyl-4-[7-[2-[2-(diethylamino)ethoxy]ethoxy]imidazo[1,2-a]pyridin-3-yl]-2-(difluoromethoxy)-6-methoxy-benzamide], the IC50 against SIK3 lay in the range of 10 to 100 nM; on SIK1, 10 to 100 nM; on SIK2, 0.01 to 10 nM.

On to `COc1cc(-c2cnc3cc(OCCN(C)C)ccn23)cc(F)c1C(=O)NC1CC1` [compound 51, N-cyclopropyl-4-[7-[2-(dimethylamino)ethoxy]imidazo[1,2-a]pyridin-3-yl]-2-fluoro-6-methoxy-benzamide], for which the IC50 is 10 to 100 nM against SIK3, greater than 500 nM at SIK1 and 10 to 100 nM against SIK2.

`COc1cc(-c2cnc3cc(OCC4CC(F)(F)C4)ccn23)cc(OC(F)F)c1C(=O)NC1CC1` [compound 52, N-cyclopropyl-4-[7-[(3,3-difluorocyclobutyl)methoxy]imidazo[1,2-a]pyridin-3-yl]-2-(difluoromethoxy)-6-methoxy-benzamide]: the IC50 on SIK3, against SIK1 and against SIK2 was 0.01 to 10 nM each time.

Consider `COc1cc(-c2cnc3cc(OC4CCC(F)(F)CC4)ccn23)cc(OC(F)F)c1C(=O)NC1CC1` [compound 77, N-cyclopropyl-4-[7-(4,4-difluorocyclohexoxy)imidazo[1,2-a]pyridin-3-yl]-2-(difluoromethoxy)-6-methoxy-benzamide], for which the IC50 was 0.01 to 10 nM against SIK3, 100 to 500 nM on SIK1 and 10 to 100 nM against SIK2.
